Laboratory results reported in patent US11672842B2, “Gonadotropin-releasing hormones for use as adjuvant immunotherapeutics” (ISR IMMUNE SYSTEM REGULATION HOLDING AB (PUBL), priority 2017, dated 2023).
[ ]: non-standard residue; d: D form. pGlu = O=C1CC[C@@H](C(=O)O)N1

Legend:
[1] = Open-label phase IIa clinical study: safety and tolerability; assay type: in vivo, human
Excerpt: The study outline is depicted in FIG. 3.

[2] = tested on: CD4+ and CD8+ T cells (PBMCs from a healthy donor); test: MHC class I expression after stimulation of T cells with GnRH II (FIG. 1); assay type: cell-based, human; details: GnRH II and IL-2 for 72 hours, flow cytometry
Description: FIG. 1: Expression of MHC class I after stimulation of T cells with increasing concentrations of GnRH II. PBMCs from a healthy donor was stimulated with GnRH II and IL-2 for 72 hours. Data points represent mean fluorescent intensity of MCH class I expression on CD4^+ T cells (blue triangles) or CD8^+ T cells (black squares) measured with flow cytometry.

CD4+ T-lymphocytes = details: BB rats exhibiting an AIDS-like lymphocyte profile; cited from earlier work

In the case of `CCNC(=O)[C@@H]1CCCN1C(=O)[C@H](CCCNC(=N)N)NC(=O)[C@H](CC(C)C)NC(=O)[C@@H](COC(C)(C)C)NC(=O)[C@H](Cc1ccc(O)cc1)NC(=O)[C@H](CO)NC(=O)[C@H](Cc1c[nH]c2ccccc12)NC(=O)[C@H](Cc1cnc[nH]1)NC(=O)[C@@H]1CCC(=O)N1` [buserelin acetate], the “Any AE affecting impotence, % of patients” value ([1]; Safety (n = 26)) is reported as “(23.1%)”, the “Any AE affecting libido, % of patients” value ([1]; Safety (n = 26)) is reported as “(30.8%)” and the “Any AE leading to discontinuation, % of patients” value ([1]; Safety (n = 26)) is reported as “(3.8%)”. For the same compound, the “Any AE, % of patients” value ([1]; Safety (n = 26)) was “(100.0%)”, the “Any SAE, % of patients” value ([1]; Safety (n = 26)) was “(0.0%)” and the “Any treatment-related AE, % of patients” value ([1]; Safety (n = 26)) was “(65.4%)”. The “Any treatment-related SAE, % of patients” value ([1]; Safety (n = 26)) was “(0.0%)”, the “Death, % of patients” value ([1]; Safety (n = 26)) was 0.0% and the “grading of adverse events” value ([1]; in words) was “All adverse events except one was graded as mild”. The “overall safety and tolerability of the treatment” value ([1]; in words) was “safe and well-tolerated” and the “serious adverse events (SAEs) during the study” value ([1]; in words) was “no serious adverse events”.
In the case of “pyroGlu-His-Trp-Ser-His-Gly-Trp-Tyr-Pro-Gly-NH2 ([pGlu]HWSHGWYPG-NH2; SMILES NC(=O)CNC(=O)[C@@H]1CCCN1C(=O)[C@H](Cc1ccc(O)cc1)NC(=O)[C@H](Cc1c[nH]c2ccccc12)NC(=O)CNC(=O)[C@H](Cc1c[nH]cn1)NC(=O)[C@H](CO)NC(=O)[C@H](Cc1c[nH]c2ccccc12)NC(=O)[C@H](Cc1c[nH]cn1)NC(=O)[C@@H]1CCC(=O)N1) [GnRH II, second, non-hypothalamic form of GnRH]”, the “MHC class I expression on T cells” value [2] is reported as “stimulates MHC class I expression”.
In the case of “pyroGlu-His-Trp-Ser-Tyr-Gly-Leu-Arg-Pro-Gly-NH2 (EHWSYGLRPG; N-terminal pyroglutamate, C-terminal amide; printed: Glu-His-Trp-Ser-Tyr-Gly-Leu-Arg-Pro-Gly-) [GnRH I, decapeptide hormone]”, the “CD4+ T-lymphocyte numbers” value (CD4+ T-lymphocytes) is given as “increased”.
